Here are results for two compounds from patent US5686418A, “Prolonging survival of transplanted pancreatic cells” (Biomeasure Incorporated, priority 1996, dated 1997).

Where two headings read alike, the source gives them in different places. Where a SMILES comes first, the peptide text is derived from it. Bridges are numbered along the chain shown (N, C = ends). [ ]: non-standard residue; d: D form.

The target in one assay is human SSTR-1 (Homo sapiens, UniProt P30872). The experiment in a line: Somatostatin receptor binding assay, hSSTR-1. From the text: (§1) The human SSTR-1, SSTR-2, SSTR-3, SSTR-4, and SSTR-5 cDNA clones have been described (SSTR-1 and SSTR-2 in Yamada, Y., et al., Proc. Natl. Acad. Sci. USA., 89:251-255 (1992); SSTR-3 in Yamade, et al., Mol. Endocrinol. 6:2136-2142 (1993); and SSTR-4 and SSTR-5 in Yamada, et al., Biochem. Biophys. Res. Commun. 195:844-852 (1993)) and are also available from American Type Culture Collection (ATCC, Rockville, Md.) (ATCC Nos. 79044 (SSTR-1), 79046 (SSTR-2), and 79048 (SSTR-3)). […] Restriction endonucleases are available from New England Biolabs (Beverly, Mass.). This cDNA fragment was inserted into the mammalian expression vector, pCMV (Russell, D., et al., J. Biol. Chem., 264:8222-8229 (1989)), using standard molecular biology techniques (see e.g., Maniatis, T., et al., Molecular Cloning--A Laboratory Manual, Cold Spring Harbor Laboratory, 1982) to produce the expression plasmid, pCMV-human SSTR-1 through pCMV-human SSTR-5. Other mammalian expression vectors include pcDNA1/Amp (Invitrogen, Sandlesy, Calif.). The expression plasmids were introduced into the suitable bacterial host, E. Coli HB101 (Stratagene, La Jolla, Calif.) and plasmid DNAs, for transfection, were prepared on Cesium Chloride gradients.
Chain of human SSTR-1 (P30872 whole entry, the tested form may be a part): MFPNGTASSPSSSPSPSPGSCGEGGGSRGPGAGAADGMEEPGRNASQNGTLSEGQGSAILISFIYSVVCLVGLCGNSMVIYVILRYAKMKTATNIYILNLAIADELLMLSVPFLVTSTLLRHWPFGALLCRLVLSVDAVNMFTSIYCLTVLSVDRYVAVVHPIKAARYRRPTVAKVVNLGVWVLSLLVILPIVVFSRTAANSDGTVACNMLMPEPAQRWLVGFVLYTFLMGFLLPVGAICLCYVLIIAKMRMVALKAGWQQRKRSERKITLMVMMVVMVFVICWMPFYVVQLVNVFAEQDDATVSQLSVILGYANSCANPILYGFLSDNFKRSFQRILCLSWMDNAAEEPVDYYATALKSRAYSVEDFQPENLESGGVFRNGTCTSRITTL
(§2) CHO-K1 (ovary, Chinese hamster) cells were obtained from ATCC (ATCC No. CCL 61). […]

Another assay deals with human SSTR-3 (Homo sapiens, UniProt P32745). The experiment in a line: Somatostatin receptor binding assay, hSSTR-3.
Chain of human SSTR-3 (P32745 whole entry): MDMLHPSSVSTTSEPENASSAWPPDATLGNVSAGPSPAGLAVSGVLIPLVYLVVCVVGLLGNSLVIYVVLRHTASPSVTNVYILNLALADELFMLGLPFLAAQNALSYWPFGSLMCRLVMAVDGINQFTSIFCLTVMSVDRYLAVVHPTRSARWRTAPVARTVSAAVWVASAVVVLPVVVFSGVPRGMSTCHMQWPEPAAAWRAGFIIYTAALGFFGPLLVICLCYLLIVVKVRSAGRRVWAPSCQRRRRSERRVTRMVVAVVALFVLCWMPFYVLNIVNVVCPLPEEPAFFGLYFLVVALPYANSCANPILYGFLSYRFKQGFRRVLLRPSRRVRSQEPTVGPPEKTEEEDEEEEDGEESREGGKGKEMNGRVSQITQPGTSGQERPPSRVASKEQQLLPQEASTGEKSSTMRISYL
Text: as §1, §2

Another assay addresses human SSTR-2 (Homo sapiens, UniProt P30874). The experiment in a line: Somatostatin receptor binding assay, hSSTR-2.
Text: as §1, §2

The target in another assay is human SSTR-5 (Homo sapiens, UniProt P35346). The experiment in a line: Somatostatin receptor binding assay, hSSTR-5.
Chain of human SSTR-5 (P35346 whole entry): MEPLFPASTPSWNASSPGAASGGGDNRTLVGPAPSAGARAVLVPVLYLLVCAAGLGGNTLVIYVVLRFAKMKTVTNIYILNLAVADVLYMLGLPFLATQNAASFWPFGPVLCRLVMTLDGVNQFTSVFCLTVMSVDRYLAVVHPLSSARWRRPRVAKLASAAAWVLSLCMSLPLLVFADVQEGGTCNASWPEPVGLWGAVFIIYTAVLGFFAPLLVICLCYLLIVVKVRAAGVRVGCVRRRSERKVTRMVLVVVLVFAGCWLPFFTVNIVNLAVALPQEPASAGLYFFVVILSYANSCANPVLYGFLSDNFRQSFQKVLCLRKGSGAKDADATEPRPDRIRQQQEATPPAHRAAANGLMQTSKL
Text: as §1, §2

The target of another assay is human SSTR-4 (Homo sapiens, UniProt P31391). The assay can be described thus: Somatostatin receptor binding assay, hSSTR-4.
Chain of human SSTR-4 (P31391 whole entry): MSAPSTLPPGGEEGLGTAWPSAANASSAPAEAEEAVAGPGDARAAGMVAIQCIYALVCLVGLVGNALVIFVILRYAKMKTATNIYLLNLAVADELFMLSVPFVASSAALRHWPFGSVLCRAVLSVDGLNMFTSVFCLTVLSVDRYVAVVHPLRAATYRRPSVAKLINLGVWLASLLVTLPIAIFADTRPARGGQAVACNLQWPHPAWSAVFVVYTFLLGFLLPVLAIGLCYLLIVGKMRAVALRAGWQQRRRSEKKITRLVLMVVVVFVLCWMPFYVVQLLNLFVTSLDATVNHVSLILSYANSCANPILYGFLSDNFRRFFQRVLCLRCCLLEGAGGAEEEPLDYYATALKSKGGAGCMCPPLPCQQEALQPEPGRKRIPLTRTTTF
Text: as §1, §2

Chain of human SSTR-2 (P30874 whole entry): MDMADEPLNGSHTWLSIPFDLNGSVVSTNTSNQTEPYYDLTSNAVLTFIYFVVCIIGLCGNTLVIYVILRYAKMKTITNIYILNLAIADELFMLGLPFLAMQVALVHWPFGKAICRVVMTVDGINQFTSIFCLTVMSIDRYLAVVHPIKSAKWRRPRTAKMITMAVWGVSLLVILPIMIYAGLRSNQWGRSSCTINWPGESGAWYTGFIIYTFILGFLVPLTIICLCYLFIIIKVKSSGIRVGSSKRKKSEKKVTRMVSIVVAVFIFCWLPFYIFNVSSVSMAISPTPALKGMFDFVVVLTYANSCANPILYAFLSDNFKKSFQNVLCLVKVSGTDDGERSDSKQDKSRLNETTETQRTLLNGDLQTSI

The Ki is the equilibrium dissociation constant of an inhibitor or competing ligand from its target. For `C[C@@H](O)[C@@H]1NC(=O)[C@H](CCCCN)NC(=O)[C@@H](Cc2c[nH]c3ccccc23)NC(=O)[C@H](Cc2ccccc2)NC(=O)[C@H](Cc2ccccc2)NC(=O)[C@@H](N)CSSC[C@@H](C(N)=O)NC(=O)[C@H](Cc2ccccc2)NC1=O` [BM-23268, H-Cys-Phe-Phe-D-Trp-Lys-Thr-Phe-Cys-NH2] (H-CFF[dW]KTFC-NH2; disulfide 1-8), the Ki on human SSTR-1 came to 12.3 nM; on human SSTR-3, 61.6 nM; at human SSTR-2 it was 6.84 nM; on human SSTR-5 (read-out: Ki hSSTR-5), 0.376 nM.
With `C[C@@H](O)[C@H](NC(=O)[C@H](Cc1ccccc1)NC(=O)[C@@H](NC(=O)[C@H](CCCCN)NC(=O)[C@@H](Cc1c[nH]c2ccccc12)NC(=O)[C@H](Cc1ccccc1)NC(=O)[C@H](Cc1ccccc1)NC(=O)[C@H](N)Cc1ccccc1)[C@@H](C)O)C(N)=O` [BIM-23052, H-D-Phe-Phe-Phe-D-Trp-Lys-Thr-Phe-Thr-NH2] (H-[dF]FF[dW]KTFT-NH2), the Ki at human SSTR-1 worked out at 97.6 nM; on human SSTR-3 it was 5.59 nM; on human SSTR-2, 5.77 nM; at human SSTR-4 it was 126 nM; at human SSTR-5, 1.23 nM.
